Measured values taken from paper PMC6199744, “Development of Chemical Proteomics for the Folateome and Analysis of the Kinetoplastid Folateome” (ACS Infectious Diseases, 2018).
Where two headings read alike, the source gives them in different places.

Key:
Format in all cases: binding
[1] = molecular target: T1, HeLa cell extract proteins (Homo sapiens, UniProt P31948)
T1 construct: endogenous in cells; host or cells: HeLa cell extract

[2] = molecular target: T2, HeLa cell extract proteins (Homo sapiens, UniProt P47712)
T2 construct: endogenous in cells; host or cells: HeLa cell extract
T2 sequence (P47712 1-749): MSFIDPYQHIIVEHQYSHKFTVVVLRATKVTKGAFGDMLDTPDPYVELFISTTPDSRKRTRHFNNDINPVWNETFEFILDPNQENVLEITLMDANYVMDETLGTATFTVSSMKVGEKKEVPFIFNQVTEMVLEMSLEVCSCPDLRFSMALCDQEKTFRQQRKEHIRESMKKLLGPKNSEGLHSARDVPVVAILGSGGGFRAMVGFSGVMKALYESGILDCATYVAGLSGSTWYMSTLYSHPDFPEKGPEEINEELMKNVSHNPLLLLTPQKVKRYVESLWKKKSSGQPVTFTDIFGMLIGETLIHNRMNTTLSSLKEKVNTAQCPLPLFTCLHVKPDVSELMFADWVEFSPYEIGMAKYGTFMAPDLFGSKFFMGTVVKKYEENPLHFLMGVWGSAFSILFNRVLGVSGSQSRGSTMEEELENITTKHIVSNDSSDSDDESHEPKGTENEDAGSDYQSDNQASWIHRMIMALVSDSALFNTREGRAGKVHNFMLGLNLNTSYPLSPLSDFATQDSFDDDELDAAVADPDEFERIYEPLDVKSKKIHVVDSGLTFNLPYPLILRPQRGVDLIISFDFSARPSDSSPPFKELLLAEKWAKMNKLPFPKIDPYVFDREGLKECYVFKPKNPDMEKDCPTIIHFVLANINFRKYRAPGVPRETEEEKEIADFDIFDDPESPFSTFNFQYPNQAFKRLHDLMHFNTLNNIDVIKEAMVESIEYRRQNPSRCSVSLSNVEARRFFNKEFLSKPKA

[3] = molecular target: T3, HeLa cell extract proteins (Homo sapiens, UniProt Q14258)
T3 construct: endogenous in cells; host or cells: HeLa cell extract

[4] = molecular target: T4, HeLa cell extract proteins (Homo sapiens, UniProt Q9BT22)
T4 construct: endogenous in cells; host or cells: HeLa cell extract
T4 sequence (Q9BT22 1-464): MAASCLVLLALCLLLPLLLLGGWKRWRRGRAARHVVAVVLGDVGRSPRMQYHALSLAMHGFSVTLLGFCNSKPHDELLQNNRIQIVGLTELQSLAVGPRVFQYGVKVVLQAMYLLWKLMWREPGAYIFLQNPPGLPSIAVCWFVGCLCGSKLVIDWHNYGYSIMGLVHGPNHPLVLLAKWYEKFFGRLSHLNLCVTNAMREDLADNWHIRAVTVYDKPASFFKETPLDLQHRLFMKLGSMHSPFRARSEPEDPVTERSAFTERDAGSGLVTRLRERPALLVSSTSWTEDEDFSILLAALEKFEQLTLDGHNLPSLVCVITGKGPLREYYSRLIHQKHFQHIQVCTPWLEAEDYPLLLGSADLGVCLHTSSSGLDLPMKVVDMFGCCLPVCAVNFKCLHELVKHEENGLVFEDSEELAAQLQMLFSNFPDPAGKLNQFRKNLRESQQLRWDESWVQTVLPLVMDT

[5] = molecular target: T5, HeLa cell extract proteins (Homo sapiens, UniProt Q13011)
T5 construct: endogenous in cells; host or cells: HeLa cell extract
T5 sequence (Q13011 34-328): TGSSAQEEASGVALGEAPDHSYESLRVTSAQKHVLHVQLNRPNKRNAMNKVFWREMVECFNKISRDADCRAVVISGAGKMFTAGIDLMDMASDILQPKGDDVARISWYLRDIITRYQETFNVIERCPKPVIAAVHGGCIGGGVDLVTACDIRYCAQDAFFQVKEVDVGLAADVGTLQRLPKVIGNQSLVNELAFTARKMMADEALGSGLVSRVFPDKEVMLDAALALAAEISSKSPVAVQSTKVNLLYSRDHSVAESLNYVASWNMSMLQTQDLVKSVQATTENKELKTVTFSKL

[6] = molecular target: T6, HeLa cell extract proteins (Homo sapiens, UniProt P11940)
T6 construct: endogenous in cells; host or cells: HeLa cell extract

[7] = molecular target: T7, HeLa cell extract proteins (Homo sapiens, UniProt P43362)
T7 construct: endogenous in cells; host or cells: HeLa cell extract
T7 sequence (P43362 1-315): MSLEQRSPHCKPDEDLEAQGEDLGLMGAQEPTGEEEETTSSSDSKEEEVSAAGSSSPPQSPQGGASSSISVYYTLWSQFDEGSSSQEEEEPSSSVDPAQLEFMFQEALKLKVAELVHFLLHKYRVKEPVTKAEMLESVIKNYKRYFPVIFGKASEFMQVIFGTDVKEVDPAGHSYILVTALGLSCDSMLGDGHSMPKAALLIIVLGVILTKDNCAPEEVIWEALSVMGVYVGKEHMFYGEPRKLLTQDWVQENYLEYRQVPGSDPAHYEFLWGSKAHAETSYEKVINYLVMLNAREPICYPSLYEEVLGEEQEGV

[8] = molecular target: T8, HeLa cell extract proteins (Homo sapiens, UniProt Q7L8L6)
T8 construct: endogenous in cells; host or cells: HeLa cell extract
T8 sequence (Q7L8L6 28-764): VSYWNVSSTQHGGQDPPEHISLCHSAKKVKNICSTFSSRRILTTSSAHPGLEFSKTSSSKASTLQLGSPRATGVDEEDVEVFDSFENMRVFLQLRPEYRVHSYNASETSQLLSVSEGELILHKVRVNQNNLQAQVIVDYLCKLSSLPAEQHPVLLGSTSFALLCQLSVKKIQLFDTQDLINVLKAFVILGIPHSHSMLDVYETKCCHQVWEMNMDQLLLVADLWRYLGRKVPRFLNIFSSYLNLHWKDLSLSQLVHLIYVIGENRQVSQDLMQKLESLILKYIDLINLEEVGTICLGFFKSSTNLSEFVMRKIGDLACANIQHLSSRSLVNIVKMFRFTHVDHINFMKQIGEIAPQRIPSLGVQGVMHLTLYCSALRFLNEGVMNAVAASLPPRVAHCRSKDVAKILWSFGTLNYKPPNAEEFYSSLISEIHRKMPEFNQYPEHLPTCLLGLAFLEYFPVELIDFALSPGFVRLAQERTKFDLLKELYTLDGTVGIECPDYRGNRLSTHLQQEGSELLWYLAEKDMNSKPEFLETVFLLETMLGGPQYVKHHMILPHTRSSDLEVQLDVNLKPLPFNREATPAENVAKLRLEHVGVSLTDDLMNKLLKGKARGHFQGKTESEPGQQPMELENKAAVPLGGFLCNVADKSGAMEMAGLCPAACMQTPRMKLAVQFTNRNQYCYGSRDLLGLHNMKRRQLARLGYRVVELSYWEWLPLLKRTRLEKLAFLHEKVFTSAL

T3 sequence (Q14258 whole entry): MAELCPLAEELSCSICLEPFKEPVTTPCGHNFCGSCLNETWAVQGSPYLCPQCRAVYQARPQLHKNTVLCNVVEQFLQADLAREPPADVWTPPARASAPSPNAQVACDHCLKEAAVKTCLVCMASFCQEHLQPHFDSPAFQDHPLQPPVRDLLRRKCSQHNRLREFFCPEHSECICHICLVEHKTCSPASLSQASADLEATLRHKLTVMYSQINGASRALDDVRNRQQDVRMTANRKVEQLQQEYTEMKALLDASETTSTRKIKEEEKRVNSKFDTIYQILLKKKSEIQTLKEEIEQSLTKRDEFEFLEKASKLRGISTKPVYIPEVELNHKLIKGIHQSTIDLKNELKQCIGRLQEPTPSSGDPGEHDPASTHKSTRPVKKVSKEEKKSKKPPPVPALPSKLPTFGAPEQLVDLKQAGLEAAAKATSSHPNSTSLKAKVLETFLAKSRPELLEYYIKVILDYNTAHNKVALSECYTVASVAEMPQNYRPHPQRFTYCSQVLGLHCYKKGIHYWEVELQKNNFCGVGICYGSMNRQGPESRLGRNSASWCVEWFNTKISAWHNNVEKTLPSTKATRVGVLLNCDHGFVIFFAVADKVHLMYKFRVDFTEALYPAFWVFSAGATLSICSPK
T6 sequence (P11940 whole entry): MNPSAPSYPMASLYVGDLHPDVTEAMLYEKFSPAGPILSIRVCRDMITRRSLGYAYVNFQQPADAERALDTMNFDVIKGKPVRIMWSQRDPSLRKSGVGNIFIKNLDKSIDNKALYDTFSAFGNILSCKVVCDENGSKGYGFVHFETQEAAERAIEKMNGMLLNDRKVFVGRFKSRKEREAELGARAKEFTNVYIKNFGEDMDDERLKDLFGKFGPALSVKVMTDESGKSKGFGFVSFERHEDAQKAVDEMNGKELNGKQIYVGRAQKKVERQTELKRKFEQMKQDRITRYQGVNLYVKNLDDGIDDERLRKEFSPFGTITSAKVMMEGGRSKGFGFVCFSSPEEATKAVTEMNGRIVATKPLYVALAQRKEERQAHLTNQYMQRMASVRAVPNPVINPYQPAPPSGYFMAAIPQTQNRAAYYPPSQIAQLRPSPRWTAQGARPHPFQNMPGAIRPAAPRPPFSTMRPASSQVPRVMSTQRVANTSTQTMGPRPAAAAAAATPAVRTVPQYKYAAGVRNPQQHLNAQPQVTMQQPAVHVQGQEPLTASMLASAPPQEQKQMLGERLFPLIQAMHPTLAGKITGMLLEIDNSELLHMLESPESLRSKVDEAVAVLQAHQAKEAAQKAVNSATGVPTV
T1 sequence (P31948 whole entry): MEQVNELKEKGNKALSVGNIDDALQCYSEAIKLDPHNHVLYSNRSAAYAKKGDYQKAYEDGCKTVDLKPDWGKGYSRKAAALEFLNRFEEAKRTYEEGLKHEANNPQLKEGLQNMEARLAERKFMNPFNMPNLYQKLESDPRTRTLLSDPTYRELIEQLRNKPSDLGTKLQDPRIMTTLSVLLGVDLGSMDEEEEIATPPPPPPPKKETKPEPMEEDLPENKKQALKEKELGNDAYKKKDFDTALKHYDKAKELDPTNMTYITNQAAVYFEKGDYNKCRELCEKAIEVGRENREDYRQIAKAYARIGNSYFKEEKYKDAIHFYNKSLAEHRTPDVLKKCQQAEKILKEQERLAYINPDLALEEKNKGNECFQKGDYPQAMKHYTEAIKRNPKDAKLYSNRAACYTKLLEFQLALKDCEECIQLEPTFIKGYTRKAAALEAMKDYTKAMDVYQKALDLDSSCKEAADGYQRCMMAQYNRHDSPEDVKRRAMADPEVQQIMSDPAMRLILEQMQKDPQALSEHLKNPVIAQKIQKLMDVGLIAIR

SMILES	fold changes relative to vehicle control ([1]; protein STIP1, HeLa)	fold changes relative to vehicle control ([2]; HeLa, protein PLA2G4A)	fold changes relative to vehicle control ([3]; HeLa, captured protein TRIM25)	fold changes relative to vehicle control ([4]; HeLa, protein ALG1)	fold changes relative to vehicle control ([5]; HeLa, protein ECH1)	fold changes relative to vehicle control ([6]; HeLa, protein PABPC1)	fold changes relative to vehicle control ([7]; HeLa, protein MAGEA9)	fold changes relative to vehicle control ([8]; HeLa, protein FASTKD5)	fold changes relative to vehicle control ([2]; protein PLA2G4A, HeLa)	fold changes relative to vehicle control ([3]; HeLa, protein TRIM25)	fold changes relative to vehicle control ([4]; captured protein ALG1, HeLa)	fold changes relative to vehicle control ([7]; protein MAGEA9, HeLa)	fold changes relative to vehicle control ([8]; captured protein FASTKD5, HeLa)	other results
Nc1nc2c(c(=O)[nH]1)N(C=O)C(CNc1ccc(C(=O)N[C@@H](CCC(=O)O)C(=O)O)cc1)CN2 (some centres unmarked) [LEU, leucovorin]	0.97	0.94	0.98	0.85	1.04	0.98	0.95	0.87						
Nc1nc2[nH]cc(CCc3ccc(C(=O)N[C@@H](CCC(=O)O)C(=O)O)cc3)c2c(=O)[nH]1 [PTX, pemetrexed]														fold changes relative to vehicle control [1]: 1.01; fold changes relative to vehicle control [2]: 1.13; fold changes relative to vehicle control [3]: 0.87; fold changes relative to vehicle control [4]: 0.81; fold changes relative to vehicle control [5]: 1.01; fold changes relative to vehicle control [6]: 0.96; fold changes relative to vehicle control [7]: 0.82; fold changes relative to vehicle control [8]: 0.84
CCCCCCOc1ccc(Cc2cnc(N)nc2N)cc1 [compound 1]	1.02				0.95	0.97			1	0.9	0.88	0.78	1.07	
CCCCCCOc1cccc(Cc2cnc(N)nc2N)c1 [compound 2]	1.49				0.91	1.19			1.72	1.07	0.91	1.24	0.94	
Nc1nc2cccc(-c3ccccc3)c2n1Cc1ccc(Cl)c(Cl)c1 [compound 3]	0.87				1	0.94			0.91	0.97	1.05	0.92	1.06	
NCCOCCOCC(=O)Nc1nc2ncc(CNc3ccc(C(=O)NC(CCC(=O)O)C(=O)O)cc3)nc2c(=O)[nH]1 (centres unmarked) [compound 6]	1.13	1.18	0.98	0.93	0.96	0.97	1.04	0.88						
NCCCNc1ccc(C(=O)NC(CCC(=O)O)C(=O)O)cc1 (centres unmarked) [compound 7]	0.92	0.88	0.94	0.99	0.99	1.05	1	0.97						
